Measured values taken from patent US20240270701A1, “BETA ADRENERGIC AGONIST AND METHODS OF USING THE SAME” (Curasen Therapeutics, Inc., priority 2021, published 2024).
Where two headings read alike, the source gives them in different places.

Experiments:
[1] = biological target: T1, B1-AR (Homo sapiens, UniProt P08588); assay: cAMP Gs dynamic HTRF assay, cells expressing beta-adrenergic receptor (CHO-K1), B1-AR; type: cell-based; conditions: for EC50: cAMP HTRF, read-out: pEC50 [B1-AR] (converted); for Emax: relative to full agonist isoproterenol, read-out: Emax (% iso) (%) [B1-AR]
T1 construct: expressed in transfected cells; host or cells: CHO-K1
Method: (§1) cAMP homogeneous time-resolved fluorescence (HTRF): experimental methods. Compound efficacy is determined using the cAMP Gs dynamic HTRF assay (Cisbio, catalog #62AM4PEC) largely following the manufacturer's instructions, also detailed below.
(§2) Standard serial dilution curves are 10-point, 5-fold dilutions starting from a highest concentration of 10 μM. Controls present on every assay plate are 0.1% DMSO (vehicle control), 1 μM isoproterenol (full beta-adrenergic agonist control) and […] xamoterol (partial beta-adrenergic agonist control). […] Assay plates are centrifuged at 500×g for 10 seconds. Compounds and IBMX are prepared at 2× final dose to compensate for addition of cells.
(§3) Cell preparation: 1× stimulation buffer, washing PBS (Dulbecco's phosphate-buffered saline, − Mg − Ca; Caisson Labs, catalog #PBL01), assay PBS (Dulbecco's phosphate-buffered saline, + Mg, + Ca; Caisson Labs, catalog #PBL02) and Versene (0.02% EDTA disodium salt solution in PBS without calcium or magnesium; Caisson Labs, catalog #EDL01) are pre-warmed to 37° C. Cells expressing beta-adrenergic receptor were washed in washing PBS to remove growth medium and then released from the surface by incubating with Versene for 5-10 minutes at 37° C. Cells are harvested using assay PBS, counted manually by hemocytometer or by an automated cell counter, pelleted by centrifugation (200×g, 5 minutes) and resuspended in 37° C. 1× stimulation buffer to a final density of 1.5×10^6 cells/mL. 5 μL of the suspended cell solution (7500 cell total) are added to all wells of the 384 well assay plate, the assay plate was covered with an Axygen® plate seal (Corning PCR-SP) and incubated in a humidified 37° C. environment supplemented with 5% CO2 for 30 minutes.
(§4) HTRF reagent addition, reading and data analysis: After 30 minutes of cell stimulation with test compound, the assay plates are centrifuged at 500×g for 10 seconds, and incubation was stopped with the addition of 5 μL cAMP-D2 acceptor, diluted 1:21 in detection and lysis buffer 2 (Cisbio 62CL2FDF) was added to all cells. Subsequently, 5 μL Anti-cAMP-Eu Donor, diluted 1:21 in detection and lysis buffer 2, was added to cells. Plates were sealed and reactions gently ‘vortexed’ at 900 rpm on a Heidolph Titramax 1000 for at least 30 minutes at room temperature. Plates are centrifuged again at 500×g for 10 seconds, and HTRF was measured using a Tecan Spark plate reader at 50 flashes per well. […] Potency estimates (EC50 and pEC50) are derived from the four-parameter nonlinear regression of the concentration-effect curve and an estimate of relative efficacy is determined by comparing the magnitude of the test compound HTRF signal window (min−max dose) with the signal window of the full agonist control, isoproterenol.

[2] = biological target: T2, B2-AR (Homo sapiens, UniProt P07550); assay: cAMP Gs dynamic HTRF assay, cells expressing beta-adrenergic receptor (CHO-K1), B2-AR; type: cell-based; conditions: for Emax: relative to full agonist isoproterenol, read-out: Emax (% iso) (%) [B2-AR]; for EC50: cAMP HTRF, read-out: pEC50 [B2-AR] (converted)
T2 construct: expressed in transfected cells; host or cells: CHO-K1
Method: as §1, §2, §3, §4

T1 sequence (P08588 whole entry, species assumed): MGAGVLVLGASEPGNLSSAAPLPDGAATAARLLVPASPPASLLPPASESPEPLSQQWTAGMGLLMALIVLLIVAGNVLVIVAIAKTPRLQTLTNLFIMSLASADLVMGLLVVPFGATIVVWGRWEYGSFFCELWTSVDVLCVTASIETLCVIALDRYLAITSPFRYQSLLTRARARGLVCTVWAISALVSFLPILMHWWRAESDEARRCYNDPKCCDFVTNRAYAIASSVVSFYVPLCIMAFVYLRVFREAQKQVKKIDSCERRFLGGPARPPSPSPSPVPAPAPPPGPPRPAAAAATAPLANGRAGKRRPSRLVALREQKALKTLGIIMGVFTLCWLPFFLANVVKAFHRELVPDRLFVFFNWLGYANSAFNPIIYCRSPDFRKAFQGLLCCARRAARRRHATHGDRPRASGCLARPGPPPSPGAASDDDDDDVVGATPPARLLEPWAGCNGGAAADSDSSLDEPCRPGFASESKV
T2 sequence (P07550 whole entry, species assumed): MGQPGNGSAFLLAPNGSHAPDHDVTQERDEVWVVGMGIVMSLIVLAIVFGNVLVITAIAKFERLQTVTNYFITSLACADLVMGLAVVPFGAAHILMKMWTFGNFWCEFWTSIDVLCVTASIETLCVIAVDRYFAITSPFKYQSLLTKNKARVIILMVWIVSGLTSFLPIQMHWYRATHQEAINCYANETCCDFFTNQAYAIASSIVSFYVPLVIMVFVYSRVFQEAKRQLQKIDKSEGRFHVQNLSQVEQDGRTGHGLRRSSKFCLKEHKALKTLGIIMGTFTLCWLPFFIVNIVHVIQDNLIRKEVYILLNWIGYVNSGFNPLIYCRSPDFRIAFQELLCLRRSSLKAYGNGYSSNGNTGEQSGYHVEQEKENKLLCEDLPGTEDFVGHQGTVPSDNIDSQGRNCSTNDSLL

Row | Emax ([2]; CHO-K1 cells) [%] | Compound | EC50 [1] [nM] | Emax [1] [%] | Emax ([2]; CHO-K1, CHO-K1 cells) [%] | EC50 ([2]; CHO-K1 cells) [nM]
1 | – | CC1(NC[C@H](O)c2cccc3[nH]nc(Cl)c23)CC1 [I-100] | < 10 | 70 to 90 | > 90 | < 10
2 | > 90 | CC(C)(C)CNC[C@H](O)c1cccc2[nH]ncc12 [I-88] | 100 to 1000 | 70 to 90 | – | < 10
3 | – | Cn1ncc2c([C@@H](O)CNC(C)(C)C)cc(F)cc21 [I-57] | 10 to 100 | 70 to 90 | 50 to 70 | < 10
4 | > 90 | CC(C)(NC[C@H](O)c1cc(C#N)cc2[nH]ncc12)C1CC1 [I-1] | 100 to 1000 | > 90 | – | 10 to 100
5 | – | CC(C)(C)NC[C@H](O)c1cccc2[nH]nc(Cl)c12 [I-114] | < 10 | > 90 | > 90 | < 10
6 | – | CCC(C)(C)NC[C@H](O)c1cccc2[nH]cc(F)c12 [I-46] | < 10 | > 90 | > 90 | < 10
7 | – | CC(C)[C@@H](C)NC[C@H](O)c1cccc2[nH]nc(F)c12 [I-38] | < 10 | 70 to 90 | > 90 | < 10
8 | < 50 | Cc1cc2ncccc2cc1[C@@H](O)CNC(C)(C)C [I-79] | > 1000 | > 90 | – | 100 to 1000
9 | – | Cc1nc(N)ncc1[C@@H](O)CNC(C)(C)C [I-144] | > 1000 | 70 to 90 | > 90 | 10 to 100
10 | – | CC1(NC[C@H](O)c2ccc(Cl)c3[nH]ncc23)CC1 [I-120] | < 10 | 70 to 90 | 70 to 90 | < 10
11 | – | CC(C)CNC[C@H](O)c1cccc2[nH]cc(F)c12 [I-111] | 10 to 100 | > 90 | 70 to 90 | 10 to 100
12 | – | C[C@H](NC[C@H](O)c1cccc2[nH]ncc12)C1CC1 [I-11] | < 10 | > 90 | > 90 | < 10
13 | > 90 | CC(C)CNC[C@H](O)c1cccc2[nH]nc(F)c12 [I-138] | 10 to 100 | 70 to 90 | – | < 10
14 | – | CC(C)(C)NC[C@H](O)c1ccc(N)nn1 [I-142] | 10 to 100 | > 90 | > 90 | 10 to 100
15 | – | CCC(CC)NC[C@H](O)c1ccc(F)c2[nH]ncc12 [I-37] | 10 to 100 | 70 to 90 | 70 to 90 | < 10
16 | – | CC(C)NC[C@H](O)c1cccc2[nH]cc(F)c12 [I-112] | < 10 | > 90 | > 90 | < 10
17 | 70 to 90 | CC1(N[C@H](CO)c2cncc3[nH]ncc23)CC1 [I-148] | > 1000 | 70 to 90 | – | > 1000
18 | – | CCc1cc([C@@H](O)CNC(C)(C)C)c2cn[nH]c2c1 [I-105] | > 1000 | < 50 | < 50 | 100 to 1000
19 | – | CC(C)CNC[C@H](O)c1cc(C#N)cc2[nH]ncc12 [I-160] | 100 to 1000 | 70 to 90 | 70 to 90 | 100 to 1000
20 | – | Cc1c(Cl)[nH]c2cccc([C@@H](O)CNC(C)(C)C)c12 [I-115] | > 1000 | 70 to 90 | 70 to 90 | 100 to 1000
21 | – | CC(C)(CO)NC[C@H](O)c1cc(C#N)cc2[nH]ncc12 [I-151] | 100 to 1000 | 70 to 90 | > 90 | 100 to 1000
22 | 70 to 90 | CC[C@H](C)NC[C@H](O)c1cccc2[nH]nc(F)c12 [I-35] | < 10 | 70 to 90 | – | < 10
23 | 50 to 70 | CC(C)(C)NC[C@H](O)c1cccc2[nH]nc(C(N)=O)c12 [I-95] | 100 to 1000 | 70 to 90 | – | 100 to 1000
24 | < 50 | Cc1nc(N)c(F)cc1[C@@H](CO)NC(C)(C)C [I-179] | > 1000 | < 50 | – | > 1000

Row | Emax ([2]; CHO-K1 cells) [%] | Compound | EC50 [1] [nM] | Emax [1] [%] | Emax ([2]; CHO-K1, CHO-K1 cells) [%] | EC50 ([2]; CHO-K1 cells) [nM]
25 | – | Cc1n[nH]c2cccc([C@@H](O)CNC3CC3)c12 [I-167] | > 1000 | 70 to 90 | 70 to 90 | 100 to 1000
26 | 70 to 90 | CC1(N[C@@H](CO)c2cncc3[nH]ncc23)CC1 [I-149] | > 1000 | < 50 | – | > 1000
27 | – | CC(C)(C)NC[C@H](O)c1cccc2c(F)n[nH]c12 [I-85] | 100 to 1000 | 70 to 90 | 50 to 70 | 100 to 1000
28 | – | C[C@H](NC[C@H](O)c1ccc(F)c2[nH]ncc12)C(C)(C)C [I-14] | 100 to 1000 | 70 to 90 | 50 to 70 | < 10
29 | – | CCC(C)(CC)NC[C@H](O)c1ccc(F)c2[nH]ncc12 [I-28] | < 10 | > 90 | > 90 | < 10
30 | > 90 | CC1(NC[C@H](O)c2cncc3[nH]ncc23)CCC1 [I-156] | 100 to 1000 | 70 to 90 | – | 10 to 100
31 | > 90 | C[C@H](NC[C@H](O)c1cccc2c1C(F)(F)C(=O)N2)C(C)(C)C [I-2] | > 1000 | 50 to 70 | – | 10 to 100
32 | – | CC(C)(NC[C@H](O)c1cc(F)cc2[nH]ncc12)C1CC1 [I-19] | < 10 | > 90 | > 90 | < 10
33 | < 50 | Cc1nc(N)c(F)cc1[C@H](CO)NC(C)(C)C [I-180] | > 1000 | < 50 | – | > 1000
34 | 70 to 90 | CCC(C)(C)NC[C@H](O)c1cncc2[nH]ncc12 [I-53] | 100 to 1000 | 70 to 90 | – | 10 to 100
35 | > 90 | O[C@@H](CNC1CC1)c1cccc2[nH]ncc12 [I-134] | < 10 | 70 to 90 | – | < 10
36 | 70 to 90 | Cc1cc([C@@H](O)CNC2CC2)c2cn[nH]c2c1 [I-135] | < 10 | 70 to 90 | – | < 10
37 | > 90 | CC(C)NC[C@H](O)c1cccc2[nH]nc(F)c12 [I-139] | < 10 | > 90 | – | < 10
38 | – | CC(C)c1cc([C@@H](O)CNC(C)(C)C)c2cn[nH]c2c1 [I-104] | > 1000 | 70 to 90 | 70 to 90 | 100 to 1000
39 | > 90 | O[C@@H](CNC1CC1)c1cncc2[nH]ncc12 [I-164] | 100 to 1000 | 70 to 90 | – | 100 to 1000
40 | – | CCC(C)(C)NC[C@H](O)c1cccc2[nH]ncc12 [I-47] | < 10 | 70 to 90 | > 90 | < 10
41 | < 50 | Cc1cnc2ccc([C@@H](O)CNC(C)(C)C)cc2c1 [I-73] | > 1000 | < 50 | – | 100 to 1000
42 | – | CCC(CC)NC[C@H](O)c1cccc2[nH]nc(F)c12 [I-42] | 10 to 100 | > 90 | 70 to 90 | < 10
43 | < 50 | CC1C(=O)Nc2cccc([C@@H](O)CNC(C)(C)C)c21 (stereo partly drawn) [I-91] | > 1000 | < 50 | – | > 1000
44 | > 90 | CC[C@H](C)NC[C@H](O)c1cccc2[nH]ncc12 [I-24] | 10 to 100 | > 90 | – | < 10
45 | 70 to 90 | O[C@@H](CNC1CCC1)c1ccc(Cl)c2[nH]ncc12 [I-119] | < 10 | 70 to 90 | – | < 10
46 | – | O[C@@H](CNCC1CC1)c1ccc(F)c2[nH]ncc12 [I-75] | < 10 | 70 to 90 | > 90 | < 10
47 | 50 to 70 | Cn1ncc2c([C@@H](O)CNC(C)(C)C)ccc(F)c21 [I-56] | 10 to 100 | 50 to 70 | – | < 10
48 | – | CCC(C)(C)NC[C@H](O)c1cccc2[nH]nc(Cl)c12 [I-45] | < 10 | 70 to 90 | 70 to 90 | < 10
